The values below are quoted from earlier work in US20260069708A1 (priority 2022, published 2026).

The conditions of the data set: reportedly.

SMILES strings stand for the structures.

Take `COc1cccc2c1C(=O)c1c(O)c3c(c(O)c1C2=O)C[C@@](O)(C(=O)CO)C[C@@H]3O[C@H]1C[C@H](N)[C@H](O)[C@H](C)O1` [Dox, doxorubicin]: the “fold lower IC50 than irinotecan” value is 10-100 fold.
